# Measured values reported in publication PMC7935272 (PLoS Pathogens, 2021).
# Molecular target: MeV L1708 (Measles virus, UniProt Q9WMB3)
# Assay: Biolayer interferometry, MeV L1708 WT
# Format: binding
# Settings: for BLI sensorgram signal: time r4=0 s, r5=0.2 s, r6=0.4 s, r7=0.6 s; for S5 E BLI response versus compound conc. / S5 F BLI response versus compound conc.: L1708 wt; for S5 B BLI sensorgram response / S5 C BLI sensorgram response: MeV L1708 WT
# MeV L1708, sequence (Q9WMB3 1-1708): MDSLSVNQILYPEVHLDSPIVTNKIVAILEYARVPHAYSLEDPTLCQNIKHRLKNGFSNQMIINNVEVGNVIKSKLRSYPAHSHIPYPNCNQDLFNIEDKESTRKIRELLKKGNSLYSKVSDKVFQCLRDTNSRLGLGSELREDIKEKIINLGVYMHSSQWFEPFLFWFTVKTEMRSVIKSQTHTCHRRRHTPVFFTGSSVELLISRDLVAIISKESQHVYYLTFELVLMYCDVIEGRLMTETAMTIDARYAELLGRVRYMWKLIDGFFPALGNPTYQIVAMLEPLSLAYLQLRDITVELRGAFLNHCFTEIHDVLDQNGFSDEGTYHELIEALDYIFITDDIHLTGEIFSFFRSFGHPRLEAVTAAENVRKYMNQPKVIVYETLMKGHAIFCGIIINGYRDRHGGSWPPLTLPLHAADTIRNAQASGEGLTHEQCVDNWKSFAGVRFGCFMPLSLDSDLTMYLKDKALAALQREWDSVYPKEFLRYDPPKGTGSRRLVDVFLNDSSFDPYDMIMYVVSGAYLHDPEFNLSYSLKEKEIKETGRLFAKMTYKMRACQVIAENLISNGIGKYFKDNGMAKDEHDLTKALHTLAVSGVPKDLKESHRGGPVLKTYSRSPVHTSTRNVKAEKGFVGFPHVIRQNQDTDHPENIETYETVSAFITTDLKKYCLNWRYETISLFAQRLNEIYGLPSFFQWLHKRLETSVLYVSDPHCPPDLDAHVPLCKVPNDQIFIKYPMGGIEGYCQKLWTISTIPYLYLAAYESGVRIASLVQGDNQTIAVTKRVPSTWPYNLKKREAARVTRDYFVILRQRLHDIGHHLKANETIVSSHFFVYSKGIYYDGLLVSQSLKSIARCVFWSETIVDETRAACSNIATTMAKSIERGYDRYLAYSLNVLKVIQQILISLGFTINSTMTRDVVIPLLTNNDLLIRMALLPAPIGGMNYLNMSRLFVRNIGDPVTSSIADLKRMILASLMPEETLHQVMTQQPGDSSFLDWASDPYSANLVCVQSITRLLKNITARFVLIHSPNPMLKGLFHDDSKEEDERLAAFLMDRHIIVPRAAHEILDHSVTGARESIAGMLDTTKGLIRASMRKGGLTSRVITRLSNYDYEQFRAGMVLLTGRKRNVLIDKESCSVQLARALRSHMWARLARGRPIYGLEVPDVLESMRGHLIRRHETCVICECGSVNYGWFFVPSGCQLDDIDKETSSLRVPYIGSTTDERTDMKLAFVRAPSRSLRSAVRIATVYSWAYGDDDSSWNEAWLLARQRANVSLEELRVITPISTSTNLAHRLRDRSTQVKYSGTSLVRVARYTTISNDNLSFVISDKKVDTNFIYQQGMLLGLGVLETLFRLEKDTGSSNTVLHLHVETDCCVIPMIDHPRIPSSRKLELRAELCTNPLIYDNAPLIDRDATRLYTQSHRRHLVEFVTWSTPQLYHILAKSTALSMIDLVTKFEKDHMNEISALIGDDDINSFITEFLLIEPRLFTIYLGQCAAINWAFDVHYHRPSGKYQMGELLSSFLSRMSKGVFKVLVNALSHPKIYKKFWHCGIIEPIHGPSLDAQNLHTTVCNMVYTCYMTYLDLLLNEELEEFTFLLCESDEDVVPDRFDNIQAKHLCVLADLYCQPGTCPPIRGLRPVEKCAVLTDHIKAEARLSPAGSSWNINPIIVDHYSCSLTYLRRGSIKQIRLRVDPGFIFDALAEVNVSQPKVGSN
# MeV L1708, sequence (Q9WMB4 whole entry partner): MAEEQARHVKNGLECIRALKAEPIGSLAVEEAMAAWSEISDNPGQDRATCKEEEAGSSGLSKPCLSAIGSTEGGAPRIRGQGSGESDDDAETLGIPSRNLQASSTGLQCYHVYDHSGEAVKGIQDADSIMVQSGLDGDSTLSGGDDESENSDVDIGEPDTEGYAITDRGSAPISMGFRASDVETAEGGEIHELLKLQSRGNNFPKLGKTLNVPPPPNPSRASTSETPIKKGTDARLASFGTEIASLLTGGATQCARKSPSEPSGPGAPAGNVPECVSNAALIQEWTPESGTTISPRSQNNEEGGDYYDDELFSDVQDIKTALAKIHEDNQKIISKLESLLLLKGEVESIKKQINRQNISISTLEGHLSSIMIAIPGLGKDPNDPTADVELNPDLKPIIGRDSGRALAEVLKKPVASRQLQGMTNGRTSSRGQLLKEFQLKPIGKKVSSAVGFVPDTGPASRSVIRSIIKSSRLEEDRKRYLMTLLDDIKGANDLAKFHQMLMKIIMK
compound,measurement,setting,value
"Cn1nc(C(F)(F)F)cc1C(=O)Nc1ccc(S(=O)(=O)N2CCCC[C@H]2CCN2CCOCC2)cc1 [ERDRP-0519, S(=O)(=O)(N1[C@H](CCN2CCOCC2)CCCC1)c1ccc(NC(=O)c2n(C)nc(C(F)(F)F)c2)cc1]",BLI sensorgram signal,"0.027 µM, 0 s after start",0.003933
same,BLI sensorgram signal,"0.027 µM, 0.2 s after start",0.003451
same,BLI sensorgram signal,"0.027 µM, 0.4 s after start",0.003441
same,BLI sensorgram signal,"0.027 µM, 0.6 s after start",0.002991
same,BLI sensorgram signal,"0.08 µM, 0 s after start",0.004633
same,BLI sensorgram signal,"0.08 µM, 0.2 s after start",0.004988
same,BLI sensorgram signal,"0.08 µM, 0.4 s after start",0.005321
same,BLI sensorgram signal,"0.08 µM, 0.6 s after start",0.005054
same,BLI sensorgram signal,"0.74 µM, 0 s after start",0.0125
same,BLI sensorgram signal,"0.74 µM, 0.2 s after start",0.01183
same,BLI sensorgram signal,"0.74 µM, 0.4 s after start",0.01188
same,BLI sensorgram signal,"0.74 µM, 0.6 s after start",0.0114
same,BLI sensorgram signal,"2.22 µM, 0 s after start",0.01275
same,BLI sensorgram signal,"2.22 µM, 0.2 s after start",0.01261
same,BLI sensorgram signal,"2.22 µM, 0.4 s after start",0.01211
same,BLI sensorgram signal,"2.22 µM, 0.6 s after start",0.01142
same,BLI sensorgram signal,"6.67 µM, 0 s after start",0.009323
same,BLI sensorgram signal,"6.67 µM, 0.2 s after start",0.01006
same,BLI sensorgram signal,"6.67 µM, 0.4 s after start",0.01027
same,BLI sensorgram signal,"6.67 µM, 0.6 s after start",0.01076
same,S5 E BLI response versus compound conc.,compound conc. 0.1 uM,0.01921
same,S5 F BLI response versus compound conc.,compound conc. 0.1 uM,0.02408
same,S5 E BLI response versus compound conc.,compound conc. 0.25 uM,0.02429
same,S5 F BLI response versus compound conc.,compound conc. 0.25 uM,0.0326
same,S5 E BLI response versus compound conc.,compound conc. 1 uM,0.03022
same,S5 F BLI response versus compound conc.,compound conc. 1 uM,0.03823
same,S5 E BLI response versus compound conc.,compound conc. 5 uM,0.0316
same,S5 F BLI response versus compound conc.,compound conc. 5 uM,0.04742
same,S5 B BLI sensorgram response,"100 nM, time 0 s",-0.001906
same,S5 C BLI sensorgram response,"100 nM, time 0 s",0.005581
same,S5 B BLI sensorgram response,"100 nM, time 0.2 s",-0.001896
same,S5 C BLI sensorgram response,"100 nM, time 0.2 s",0.006504
same,S5 B BLI sensorgram response,"100 nM, time 0.4 s",-0.001894
same,S5 C BLI sensorgram response,"100 nM, time 0.4 s",0.007379
same,S5 B BLI sensorgram response,"100 nM, time 0.6 s",-0.001966
same,S5 C BLI sensorgram response,"100 nM, time 0.6 s",0.008161
same,S5 B BLI sensorgram response,"250 nM, time 0 s",-0.005003
same,S5 C BLI sensorgram response,"250 nM, time 0 s",-0.0006808
same,S5 B BLI sensorgram response,"250 nM, time 0.2 s",-0.005217
same,S5 C BLI sensorgram response,"250 nM, time 0.2 s",-0.0001528
same,S5 B BLI sensorgram response,"250 nM, time 0.4 s",-0.005452
same,S5 C BLI sensorgram response,"250 nM, time 0.4 s",0.0001322
same,S5 B BLI sensorgram response,"250 nM, time 0.6 s",-0.004917
same,S5 C BLI sensorgram response,"250 nM, time 0.6 s",0.0008364
same,S5 B BLI sensorgram response,"1 µM, time 0 s",-0.01251
same,S5 C BLI sensorgram response,"1 µM, time 0 s",-0.001989
same,S5 B BLI sensorgram response,"1 µM, time 0.2 s",-0.01197
same,S5 C BLI sensorgram response,"1 µM, time 0.2 s",-0.00137
same,S5 B BLI sensorgram response,"1 µM, time 0.4 s",-0.01055
same,S5 C BLI sensorgram response,"1 µM, time 0.4 s",-0.0005476
same,S5 B BLI sensorgram response,"1 µM, time 0.6 s",-0.009819
same,S5 B BLI sensorgram response,"5 µM, time 0 s",-0.006751
same,S5 B BLI sensorgram response,"5 µM, time 0.2 s",-0.006914
same,S5 C BLI sensorgram response,"5 µM, time 0.2 s",0.003468
same,S5 B BLI sensorgram response,"5 µM, time 0.4 s",-0.007277
same,S5 C BLI sensorgram response,"5 µM, time 0.4 s",0.003613
same,S5 B BLI sensorgram response,"5 µM, time 0.6 s",-0.007135
same,S5 C BLI sensorgram response,"5 µM, time 0.6 s",0.003495
same,S5 B BLI sensorgram response,"10 µM, time 0 s",-0.00589
same,S5 C BLI sensorgram response,"10 µM, time 0 s",-0.0007761
same,S5 B BLI sensorgram response,"10 µM, time 0.2 s",-0.006049
same,S5 C BLI sensorgram response,"10 µM, time 0.2 s",-0.00071
same,S5 B BLI sensorgram response,"10 µM, time 0.4 s",-0.006539
same,S5 C BLI sensorgram response,"10 µM, time 0.4 s",-0.000595
